{
  "source": "paper PMC6389993",
  "about": "“Quercetin and its metabolite isorhamnetin promote glucose uptake through different signalling pathways in myotubes” (Scientific Reports, 2019)",
  "key": {"[1]": {"test_system": "GLUT4", "assay": "GLUT4 translocation in L6 myotubes after siRNA knockdown of AMPKα, JAK2 or JAK3", "assay_type": "cell-based, rat", "conditions": "1 nM quercetin or isorhamnetin", "method": "(§1) For in vitro cell culture experiments, after serum starvation for 18 h, myotubes were treated with various concentrations of quercetin or isorhamnetin (0.1–10 nM) for 15 min; DMSO (final 0.1%) was used as a vehicle control. As positive controls, 100 nM insulin, 1 mM AICAR, 10 nM leptin, or 100 ng/mL IL-15 were used for insulin, AMPK, JAK2/STAT, or JAK3/STAT signalling pathways, respectively. Cells were treated with insulin or AICAR for 15 min, leptin for 60 min, or IL-15 for 24 h. Whole protein and plasma membrane fractions were prepared from myotubes, as previously described. For in vivo experiment, plasma membrane fraction and tissue lysate of soleus muscle were prepared.\n(§2) Translocation of GLUT4 to the plasma membrane, as well as expression and phosphorylation levels of GLUT4-related regulators were estimated by western blot analysis. Briefly, equal amounts of proteins were separated by sodium dodecyl sulfate-polyacrylamide gel electrophoresis (SDS-PAGE). Separated proteins were transferred onto a polyvinylidene fluoride membrane and nonspecific binding sites were blocked using either Blocking One (to detect unphosphorylated proteins) or Blocking One-P (to detect phosphoproteins). The membrane was incubated overnight with an appropriate primary antibody for GLUT4 (1:5000), IR (1:10000), p-IRS1 (1:5000), IRS1 (1:5000), p-PI3K (1:5000), PI3K (1:10000), p-Akt (1:5000), Akt (1:10000), p-AMPKα (1:5000), AMPKα (1:10000), p-ACC (1:5000), ACC (1:10000), p-LKB1 (1:5000), LKB1 (1:10000), p-JAK2 (1:5000), JAK2 (1:5000), p-JAK3 (1:5000), JAK3 (1:10000), p-STAT1 (1:5000), STAT1 (1:10000), p-STAT3 (1:5000), STAT3 (1:10000), p-STAT5 (1:5000), STAT5 (1:10000), or β-actin (1:20000), and subsequently treated with the corresponding horseradish peroxidase-conjugated secondary antibody (1:50000) for 1 h. Specific immune complexes were developed using ImmunoStar® LD and detected with an ATTO Light-Capture II Western Blotting Detection System. Individual band density was calculated by ImageJ and normalized to the control.\nMature myotubes were cultured in antibiotic-free medium and transfected with siRNA at a final concentration of 50 nM using Lipofectamine RNAiMAX transfection reagent according to the manufacturer’s instructions. In brief, mature myotubes were transfected with siRNA in Opti-MEM for 48 h. Subsequently, the medium was changed to fresh Opti-MEM and cells were treated with the indicated concentrations of quercetin or isorhamnetin."}, "[2]": {"test_system": "AMPK", "assay": "Phosphorylation of AMPK in L6 myotubes (western blot)", "assay_type": "cell-based, rat", "method": "In vitro cultured cell experiments were conducted according to a previously described protocol[6],[14]. Briefly, L6 myoblasts derived from rat skeletal muscle and of less than 40 passages were maintained in MEM supplemented with 10% foetal bovine serum (FBS) and antibiotics (100 U/ml penicillin and 100 μg/ml streptomycin) at 37 °C under a humidified atmosphere condition of 5% CO2 and 95% air. In each experiment, cells (2.2 × 10^4 cells/ml) were seeded into 96-well plates or 60-mm dishes for induction of differentiation into mature myotubes. After reaching confluence, cells were supplemented with differentiation medium containing 2% FBS and the same antibiotics for 7 days. Cells were used for each experiment after morphological analysis of differentiation status using phase-contrast microscopy. To explore the contribution of CaMKKβ or intracellular-free calcium ions in quercetin- and isorhamnetin-stimulated GLUT4 translocation, L6 cells were incubated in the presence or absence of 10 μM STO-609 and 25 μM […], respectively, for 30 min prior to treatment with either quercetin or isorhamnetin.\nas §1, §2\n42 after morphological analysis of differentiation status using phase-contrast microscopy.\n43 Preparation of whole protein and plasma membrane fractions After serum starvation\n44 for 18 h, myotubes were treated with various concentrations of quercetin or isorhamnetin (1–\n45 10 μM) for 15 min; DMSO (final 0.1%) was used as a vehicle control. As positive controls, […]"}},
  "data": [
    {"molecule": "NC(=O)c1ncn([C@@H]2O[C@H](CO)[C@@H](O)[C@H]2O)c1N", "note": "[AICAR, 5-aminoimidazole-4-carboxyamide ribonucleoside, reference compound]", "values": [
      {"measurement": "compound-induced GLUT4 translocation after siRNA for AMPK", "setting": "[1]; siAMPKα 50 nM 48 h, 1 mM AICAR", "value": "almost completely abolished"}
    ]},
    {"molecule": "O=C(O)c1ccc2c3c1cccc3c(=O)n1c3ccccc3nc21", "note": "[STO-609, reference compound]", "values": [
      {"measurement": "effect on quercetin-induced AMPK phosphorylation", "setting": "[2]; 10 μM STO-609 for 30 min prior to 1 nM quercetin", "value": "abolished"}
    ]},
    {"molecule": "CC(=O)OCOC(=O)CN(CC(=O)OCOC(C)=O)c1ccccc1OCCOc1ccccc1N(CC(=O)OCOC(C)=O)CC(=O)OCOC(C)=O", "note": "[BAPTA-AM, 1,2-Bis (2-aminophenoxy) ethane-N,N,N′,N′-tetraacetic acid tetrakis (acetoxymethyl ester), reference compound]", "values": [
      {"measurement": "effect on quercetin-induced AMPK phosphorylation", "setting": "[2]; 25 μM BAPTA-AM for 30 min prior to 1 nM quercetin", "value": "did not affect"}
    ]},
    {"molecule": "leptin: positive control for JAK2/STAT signalling pathway", "values": [
      {"measurement": "compound-induced GLUT4 translocation after siRNA for JAK2", "setting": "[1]; siJAK2 50 nM 48 h, 10 nM leptin", "value": "abolished"}
    ]}
  ]
}
